Experimental data reported in ChEMBL document CHEMBL1157712, “Hit to lead account of the discovery of bisbenzamide and related ureidobenzamide inhibitors of Rho kinase” (J Med Chem, 2010).

Columns and labels:
[1] = target: T1, Rho-associated protein kinase 2 (Homo sapiens, UniProt O75116); assay: Inhibition of human ROCK2 by IMAP assay
[2] = target: T1, Rho-associated protein kinase 2
Description: (§1) Inhibition of human ROCK2 by homogenous luciferase assay

[3] = target: T1, Rho-associated protein kinase 2; remark: listed apart in the source
Description: as §1

Cytochrome P450 2D6 = Cytochrome P450 2D6 (Homo sapiens, UniProt P10635); assay: Inhibition of human CYP2D6 by LCMS/MS assay; format: ADME
Chain of Cytochrome P450 2D6 (P10635 whole entry): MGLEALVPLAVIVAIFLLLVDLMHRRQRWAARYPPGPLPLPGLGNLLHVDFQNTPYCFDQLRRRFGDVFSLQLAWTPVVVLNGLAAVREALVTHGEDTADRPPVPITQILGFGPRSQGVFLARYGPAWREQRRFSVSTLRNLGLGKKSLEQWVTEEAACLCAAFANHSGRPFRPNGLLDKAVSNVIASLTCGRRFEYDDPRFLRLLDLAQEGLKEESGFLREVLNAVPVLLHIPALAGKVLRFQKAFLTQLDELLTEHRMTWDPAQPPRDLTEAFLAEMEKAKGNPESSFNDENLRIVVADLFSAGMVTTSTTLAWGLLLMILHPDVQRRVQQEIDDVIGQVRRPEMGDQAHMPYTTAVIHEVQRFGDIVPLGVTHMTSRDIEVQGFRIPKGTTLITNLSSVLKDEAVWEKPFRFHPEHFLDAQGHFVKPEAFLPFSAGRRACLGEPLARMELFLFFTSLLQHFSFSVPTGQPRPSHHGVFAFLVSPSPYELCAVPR

[4] = Solubility at pH 7.4; format: physicochemical; conditions: buffer
[5] = Permeability from apical to basolateral side in human Caco-2 cells; format: ADME, cell-based; conditions: Caco-2, read-out: permeability
Cytochrome P450 1A2 = target: T2, Cytochrome P450 1A2 (Homo sapiens, UniProt P05177); assay: Inhibition of human CYP1A2 by LCMS/MS assay; format: ADME
T2 sequence (P05177 whole entry): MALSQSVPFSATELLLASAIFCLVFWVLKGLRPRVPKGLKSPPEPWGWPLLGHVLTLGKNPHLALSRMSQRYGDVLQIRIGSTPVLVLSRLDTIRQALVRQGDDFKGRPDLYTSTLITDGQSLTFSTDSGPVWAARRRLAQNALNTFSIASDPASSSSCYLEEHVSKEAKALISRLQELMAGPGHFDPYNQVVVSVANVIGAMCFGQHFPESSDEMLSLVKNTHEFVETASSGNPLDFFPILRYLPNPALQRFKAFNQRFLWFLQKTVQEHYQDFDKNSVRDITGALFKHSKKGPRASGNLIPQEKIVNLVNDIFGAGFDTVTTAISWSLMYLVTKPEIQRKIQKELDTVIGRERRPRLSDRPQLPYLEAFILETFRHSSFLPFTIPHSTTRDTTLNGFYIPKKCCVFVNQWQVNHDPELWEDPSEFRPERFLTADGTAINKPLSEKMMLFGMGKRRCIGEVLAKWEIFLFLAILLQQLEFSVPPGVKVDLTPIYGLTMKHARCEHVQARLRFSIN

[6] = Membrane permeability by PAMPA assay; format: ADME; conditions: read-out: permeability
Cytochrome P450 3A4 = Cytochrome P450 3A4 (Homo sapiens, UniProt P08684); assay: Inhibition of human CYP3A4 by LCMS/MS assay; format: ADME
Cytochrome P450 2C9 = Cytochrome P450 2C9 (Homo sapiens, UniProt P11712); assay: Inhibition of human CYP2C9 by LCMS/MS assay; format: ADME
Chain of Cytochrome P450 2C9 (P11712 whole entry): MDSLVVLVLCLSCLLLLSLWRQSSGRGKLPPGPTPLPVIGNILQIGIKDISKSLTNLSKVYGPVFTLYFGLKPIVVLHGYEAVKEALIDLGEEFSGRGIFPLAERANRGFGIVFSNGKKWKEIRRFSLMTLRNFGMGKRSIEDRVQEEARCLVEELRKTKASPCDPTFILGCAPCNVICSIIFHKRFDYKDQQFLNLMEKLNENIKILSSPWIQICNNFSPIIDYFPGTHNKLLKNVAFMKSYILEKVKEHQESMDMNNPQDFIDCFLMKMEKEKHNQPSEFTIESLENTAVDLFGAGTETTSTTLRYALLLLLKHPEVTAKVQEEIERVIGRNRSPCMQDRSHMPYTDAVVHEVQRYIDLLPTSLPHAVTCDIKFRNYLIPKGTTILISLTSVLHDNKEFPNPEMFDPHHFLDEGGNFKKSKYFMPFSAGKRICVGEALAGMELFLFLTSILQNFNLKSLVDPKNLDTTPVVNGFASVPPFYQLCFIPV

[7] = Permeability from basolateral to apical side in human Caco-2 cells; format: ADME, cell-based; conditions: read-out: permeability
Rattus norvegicus = organism: Rattus norvegicus; assay: Induction of relaxation activity of phenylephrine-induced Sprague-Dawley rat aortic ring contraction; format: functional; conditions: Aorta
[8] = target: Serine/threonine-protein kinase MRCK beta (Homo sapiens) (UniProt Q9Y5S2); assay: Inhibition of CDC42BPB
Chain of Serine/threonine-protein kinase MRCK beta (Homo sapiens) (Q9Y5S2 whole entry, looked up): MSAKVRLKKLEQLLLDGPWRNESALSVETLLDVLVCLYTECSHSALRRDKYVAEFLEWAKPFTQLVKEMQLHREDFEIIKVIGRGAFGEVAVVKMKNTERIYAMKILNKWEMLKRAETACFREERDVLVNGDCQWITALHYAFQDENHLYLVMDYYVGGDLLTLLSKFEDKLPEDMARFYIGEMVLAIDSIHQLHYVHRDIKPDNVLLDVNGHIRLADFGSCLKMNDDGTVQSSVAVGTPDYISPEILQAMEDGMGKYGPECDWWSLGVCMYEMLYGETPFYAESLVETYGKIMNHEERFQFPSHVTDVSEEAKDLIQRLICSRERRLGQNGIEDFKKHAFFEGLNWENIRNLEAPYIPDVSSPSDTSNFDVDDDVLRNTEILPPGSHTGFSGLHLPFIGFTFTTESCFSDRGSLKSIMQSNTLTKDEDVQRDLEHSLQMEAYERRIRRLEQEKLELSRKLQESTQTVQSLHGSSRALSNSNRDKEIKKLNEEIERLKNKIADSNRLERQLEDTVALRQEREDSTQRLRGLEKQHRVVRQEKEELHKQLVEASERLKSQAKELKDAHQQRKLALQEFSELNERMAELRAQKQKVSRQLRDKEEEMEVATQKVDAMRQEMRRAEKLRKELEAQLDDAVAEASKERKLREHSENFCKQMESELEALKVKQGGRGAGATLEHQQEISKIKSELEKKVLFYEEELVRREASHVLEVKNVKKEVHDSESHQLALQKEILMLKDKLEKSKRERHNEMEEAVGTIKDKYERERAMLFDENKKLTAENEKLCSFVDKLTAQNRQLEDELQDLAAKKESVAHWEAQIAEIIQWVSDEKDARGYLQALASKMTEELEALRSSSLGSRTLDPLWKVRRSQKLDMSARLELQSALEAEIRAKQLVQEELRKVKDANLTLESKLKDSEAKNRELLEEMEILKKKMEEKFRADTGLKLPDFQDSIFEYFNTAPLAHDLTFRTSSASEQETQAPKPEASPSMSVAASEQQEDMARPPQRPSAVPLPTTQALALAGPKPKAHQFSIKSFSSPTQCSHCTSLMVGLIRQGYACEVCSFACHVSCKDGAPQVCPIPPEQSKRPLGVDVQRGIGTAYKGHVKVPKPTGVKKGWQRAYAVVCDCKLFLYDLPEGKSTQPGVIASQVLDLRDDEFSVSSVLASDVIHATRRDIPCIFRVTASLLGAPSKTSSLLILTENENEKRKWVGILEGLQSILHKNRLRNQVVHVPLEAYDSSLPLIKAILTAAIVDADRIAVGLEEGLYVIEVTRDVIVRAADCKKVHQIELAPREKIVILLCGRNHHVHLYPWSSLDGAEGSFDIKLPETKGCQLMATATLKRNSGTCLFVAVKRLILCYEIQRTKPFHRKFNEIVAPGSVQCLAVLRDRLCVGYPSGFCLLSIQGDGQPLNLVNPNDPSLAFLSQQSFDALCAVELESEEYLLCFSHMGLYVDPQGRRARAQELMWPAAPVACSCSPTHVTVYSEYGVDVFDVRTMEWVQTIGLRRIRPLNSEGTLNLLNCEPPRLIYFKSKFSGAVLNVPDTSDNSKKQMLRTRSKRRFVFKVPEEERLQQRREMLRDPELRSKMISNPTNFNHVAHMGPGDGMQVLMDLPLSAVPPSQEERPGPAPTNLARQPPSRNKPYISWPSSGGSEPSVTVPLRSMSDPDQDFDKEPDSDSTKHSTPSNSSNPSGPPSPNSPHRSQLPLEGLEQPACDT

[9] = target: Serine/threonine-protein kinase N2 (Homo sapiens, UniProt Q16513)
Chain of Serine/threonine-protein kinase N2 (Q16513 whole entry): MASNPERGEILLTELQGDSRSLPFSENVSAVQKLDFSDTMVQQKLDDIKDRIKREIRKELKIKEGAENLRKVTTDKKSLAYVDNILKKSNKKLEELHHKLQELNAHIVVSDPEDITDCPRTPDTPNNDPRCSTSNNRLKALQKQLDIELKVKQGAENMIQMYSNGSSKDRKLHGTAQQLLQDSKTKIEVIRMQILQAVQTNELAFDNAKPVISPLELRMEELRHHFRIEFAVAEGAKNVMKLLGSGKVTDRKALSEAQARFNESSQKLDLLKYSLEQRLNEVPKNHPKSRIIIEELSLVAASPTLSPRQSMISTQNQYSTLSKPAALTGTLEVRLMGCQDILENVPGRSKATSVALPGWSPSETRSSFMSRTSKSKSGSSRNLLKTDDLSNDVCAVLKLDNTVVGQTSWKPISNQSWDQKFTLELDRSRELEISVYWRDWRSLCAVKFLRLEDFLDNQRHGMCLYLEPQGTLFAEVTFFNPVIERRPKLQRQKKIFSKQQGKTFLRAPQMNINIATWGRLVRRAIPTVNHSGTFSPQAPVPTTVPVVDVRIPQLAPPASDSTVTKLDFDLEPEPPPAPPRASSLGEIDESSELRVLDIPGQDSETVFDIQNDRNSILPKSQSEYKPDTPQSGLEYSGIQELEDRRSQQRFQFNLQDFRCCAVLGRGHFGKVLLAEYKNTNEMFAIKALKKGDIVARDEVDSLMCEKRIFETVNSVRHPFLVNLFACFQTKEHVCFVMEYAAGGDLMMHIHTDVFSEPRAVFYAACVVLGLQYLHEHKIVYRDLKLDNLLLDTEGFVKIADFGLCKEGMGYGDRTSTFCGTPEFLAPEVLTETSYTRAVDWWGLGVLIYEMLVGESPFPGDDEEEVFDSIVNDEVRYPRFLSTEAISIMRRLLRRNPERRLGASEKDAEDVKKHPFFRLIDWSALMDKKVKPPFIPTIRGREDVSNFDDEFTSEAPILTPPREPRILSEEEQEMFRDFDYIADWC

[10] = target: T3, Protein kinase C epsilon type (Homo sapiens, UniProt Q02156); assay: Inhibition of PKCepsilon
T3 sequence (Q02156 whole entry): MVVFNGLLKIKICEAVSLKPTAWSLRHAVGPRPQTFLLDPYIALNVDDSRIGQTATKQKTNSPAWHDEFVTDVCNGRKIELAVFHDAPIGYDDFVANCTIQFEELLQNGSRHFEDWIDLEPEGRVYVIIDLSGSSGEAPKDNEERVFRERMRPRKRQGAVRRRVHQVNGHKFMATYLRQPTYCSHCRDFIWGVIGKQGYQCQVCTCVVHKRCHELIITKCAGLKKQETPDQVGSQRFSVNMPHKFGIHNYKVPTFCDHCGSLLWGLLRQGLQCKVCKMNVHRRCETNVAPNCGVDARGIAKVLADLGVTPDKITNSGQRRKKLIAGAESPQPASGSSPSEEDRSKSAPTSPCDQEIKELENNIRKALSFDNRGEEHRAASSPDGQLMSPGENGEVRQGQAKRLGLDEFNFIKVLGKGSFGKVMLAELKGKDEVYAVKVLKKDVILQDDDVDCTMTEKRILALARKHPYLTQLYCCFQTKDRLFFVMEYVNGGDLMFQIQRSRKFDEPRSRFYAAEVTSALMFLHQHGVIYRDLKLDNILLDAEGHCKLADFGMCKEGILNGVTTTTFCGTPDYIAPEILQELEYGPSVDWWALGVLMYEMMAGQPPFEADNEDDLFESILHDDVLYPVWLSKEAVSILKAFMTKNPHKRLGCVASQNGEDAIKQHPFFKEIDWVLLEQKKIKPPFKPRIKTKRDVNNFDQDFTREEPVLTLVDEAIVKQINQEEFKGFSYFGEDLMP

T1 sequence (O75116 whole entry): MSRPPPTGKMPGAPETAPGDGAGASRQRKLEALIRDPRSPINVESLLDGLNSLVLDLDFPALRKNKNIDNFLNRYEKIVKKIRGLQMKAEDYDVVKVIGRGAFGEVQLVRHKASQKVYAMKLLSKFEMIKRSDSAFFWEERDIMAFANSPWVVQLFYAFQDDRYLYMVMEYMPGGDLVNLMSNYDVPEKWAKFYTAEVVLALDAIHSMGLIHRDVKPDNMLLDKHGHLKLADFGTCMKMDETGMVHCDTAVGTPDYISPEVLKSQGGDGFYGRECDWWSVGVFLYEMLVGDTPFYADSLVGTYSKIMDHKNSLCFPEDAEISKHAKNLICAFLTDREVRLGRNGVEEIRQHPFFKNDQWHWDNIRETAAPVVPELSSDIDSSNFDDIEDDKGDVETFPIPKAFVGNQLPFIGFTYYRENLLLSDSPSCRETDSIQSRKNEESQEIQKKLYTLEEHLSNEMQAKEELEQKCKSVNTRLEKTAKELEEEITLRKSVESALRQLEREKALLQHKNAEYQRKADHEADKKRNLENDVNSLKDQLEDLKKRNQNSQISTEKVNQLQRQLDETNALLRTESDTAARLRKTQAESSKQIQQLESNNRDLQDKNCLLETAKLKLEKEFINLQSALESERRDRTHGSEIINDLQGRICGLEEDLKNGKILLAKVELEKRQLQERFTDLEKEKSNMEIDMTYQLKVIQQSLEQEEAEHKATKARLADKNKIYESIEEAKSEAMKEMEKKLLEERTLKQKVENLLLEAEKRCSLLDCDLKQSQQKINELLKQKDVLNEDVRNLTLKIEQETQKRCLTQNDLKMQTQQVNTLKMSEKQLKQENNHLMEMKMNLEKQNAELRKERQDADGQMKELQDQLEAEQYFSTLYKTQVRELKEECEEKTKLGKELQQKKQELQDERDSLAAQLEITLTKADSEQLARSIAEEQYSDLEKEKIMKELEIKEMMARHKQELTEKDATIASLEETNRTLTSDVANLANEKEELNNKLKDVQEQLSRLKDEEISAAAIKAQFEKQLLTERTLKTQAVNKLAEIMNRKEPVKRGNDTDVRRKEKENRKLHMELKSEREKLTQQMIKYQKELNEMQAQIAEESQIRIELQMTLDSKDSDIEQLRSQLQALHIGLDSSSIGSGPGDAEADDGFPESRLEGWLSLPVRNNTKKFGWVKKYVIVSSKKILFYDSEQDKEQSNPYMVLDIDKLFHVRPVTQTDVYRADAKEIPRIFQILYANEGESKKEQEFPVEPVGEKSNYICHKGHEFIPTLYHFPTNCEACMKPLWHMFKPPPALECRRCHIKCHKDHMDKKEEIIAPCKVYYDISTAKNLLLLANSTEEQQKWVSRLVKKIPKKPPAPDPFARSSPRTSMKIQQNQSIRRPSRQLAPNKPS

IC50 [1]	IC50 [2]	IC50 [3]	Structure (SMILES)	also measured
> 6.5 µM			CN(C)Cc1ccc(NC(=O)c2cccc(CNC(=O)c3ccc(C#N)cc3)c2)cc1	
	> 6000 µM		COc1ccc(C(=O)Nc2cccc(C(=O)NCCC3CCCNC3)c2)cc1OC (centres undefined)	
		65 µM	N#Cc1ccc(NC(=O)NCc2cccc(C(=O)NCCC3CCNCC3)c2)cc1	
		3200 µM	COc1ccc(CC(=O)Nc2cccc(C(=O)NCCC3CCCNC3)c2)cc1OC (centres undefined)	
> 6.5 µM			COc1ccc(C(=O)NCc2cccc(C(=O)Nc3ccc(CN(C)C)cc3)c2)cc1	
> 7 µM	> 7 µM		COc1cccc(C(=O)NCc2cccc(C(=O)Nc3ccc(CN(C)C)cc3)c2)c1	
0.32 µM		100 µM	COc1ccc(C(=O)NCc2cccc(C(=O)Nc3ccc4c(c3)CCNC4)c2)cc1OC	
0.014 µM		8 µM	CN(C)Cc1ccc(NC(=O)c2cccc(CNC(=O)Nc3ccc(C(N)=O)cc3)c2)cc1	
	> 6000 µM		COc1ccc(CNC(=O)c2cccc(C(=O)NCCC3CCCNC3)c2)cc1OC (centres undefined)	
1.3 µM		670 µM	CN(C)Cc1ccc(NC(=O)c2cccc(CNC(=O)c3ccc(OC(F)(F)F)c(Cl)c3)c2)cc1	
> 6.4 µM	> 6 µM		CN(C)Cc1ccc(NC(=O)c2cccc(CNC(=O)c3ccc(O)c(O)c3)c2)cc1	
0.66 µM			COc1ccc(C(=O)NCc2cccc(C(=O)Nc3ccc(CN(C)C)cc3)c2)cc1C	IC50 (Cytochrome P450 2D6): > 30 µM; solubility [4]: > 88 µg/mL; Papp A→B [5]: 7.9 ×10⁻⁶ cm/s; IC50 (Cytochrome P450 1A2): > 30 µM; Papp [6]: 21 ×10⁻⁶ cm/s; IC50 (Cytochrome P450 3A4): 13.5 µM; IC50 (Cytochrome P450 2C9): 12.5 µM; Papp B→A [7]: 30.8 ×10⁻⁶ cm/s
	> 6000 µM		COc1ccc(S(=O)(=O)NCc2cccc(C(=O)NCCC3CCCNC3)c2)cc1OC (centres undefined)	
		102 µM	COc1ccc(C(=O)NCc2cccc(C(=O)NCCC3CCCN(C)C3)c2)cc1OC (centres undefined)	
			O=S(=O)(c1cccc2cnccc12)N1CCCNCC1 [FASUDIL]	IC50 (Rattus norvegicus): 6.1 µM
		1600 µM	COc1ccc(NC(=O)NCc2cccc(C(=O)NCCC3CCCNC3)c2)cc1OC (centres undefined)	
0.16 µM	0.065 µM		CN(C)Cc1ccc(NC(=O)c2cccc(CNC(=O)Nc3ccc(C#N)cc3)c2)cc1	IC50 [8]: > 5 µM; IC50 [9]: > 5 µM; IC50 [10]: > 5 µM
	5.5 µM		N#Cc1cccc(NC(=O)NCc2cccc(C(=O)NCCc3ccncc3)c2)c1	
	> 7000 µM		COc1cccc(C(=O)NCc2cccc(C(=O)NCCc3ccncc3)c2)c1	
		37 µM	COc1ccc(NC(=O)Cc2cccc(NC(=O)CCC3CCCNC3)c2)cc1OC (centres undefined)	
0.21 µM		70 µM	N#Cc1ccc(NC(=O)NCc2cccc(C(=O)Nc3ccc(CN)cc3)c2)cc1	
